From BindingDB's records for doi:10.1021/jm300185p (Takeda Pharmaceutical, 2012)

Target: Mitogen-activated protein kinase kinase kinase 7 (TAK1 kinase) (Homo sapiens) (UniProt O43318)
Experiment: Inhibition of N-terminus FLAG-tagged TAK1 expressed in baculovirus expression system using [gamma-33P]-ATP measured after 60 mins by scintillation counting

Sequence of Mitogen-activated protein kinase kinase kinase 7 (TAK1 kinase) (Homo sapiens) (O43318 whole entry, looked up): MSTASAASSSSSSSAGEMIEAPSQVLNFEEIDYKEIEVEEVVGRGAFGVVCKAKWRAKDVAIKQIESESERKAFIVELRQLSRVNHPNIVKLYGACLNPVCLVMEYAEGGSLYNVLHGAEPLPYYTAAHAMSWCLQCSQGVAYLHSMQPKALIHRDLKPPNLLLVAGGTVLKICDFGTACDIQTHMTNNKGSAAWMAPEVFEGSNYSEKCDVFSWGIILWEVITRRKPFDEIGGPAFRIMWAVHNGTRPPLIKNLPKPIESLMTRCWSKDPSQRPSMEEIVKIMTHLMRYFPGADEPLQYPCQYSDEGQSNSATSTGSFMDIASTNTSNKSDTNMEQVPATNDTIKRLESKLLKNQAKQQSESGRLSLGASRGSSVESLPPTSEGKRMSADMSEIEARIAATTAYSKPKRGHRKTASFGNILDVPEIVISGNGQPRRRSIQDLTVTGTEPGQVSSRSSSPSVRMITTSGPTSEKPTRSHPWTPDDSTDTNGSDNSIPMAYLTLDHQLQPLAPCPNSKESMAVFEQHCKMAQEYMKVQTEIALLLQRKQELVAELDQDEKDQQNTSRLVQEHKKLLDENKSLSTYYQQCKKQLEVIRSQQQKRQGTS

IC50: > 10 µM
SMILES: CC(C)(N)C(=O)NCCn1ccc2ncnc(Nc3ccc(Oc4cccc5sncc45)c(Cl)c3)c21
